# Assay results as given in patent US20060199240A1, “Biosensor and method comprising enzymes immobilized on semiconductors” (Yissum Research Development Company of the Hebrew …, priority 2002, published 2006).
# B1: AChE (Homo sapiens) (protein)
# chain: EGREDAELLVTVRGGRLRGIRLKTPGGPVSAFLGIPFAEPPMGPRRFLPPEPKQPWSGVVDATTFQSVCYQYVDTLYPGFEGTEMWNPNRELSEDCLYLNVWTPYPRPTSPTPVLVWIYGGGFYSGASSLDVYDGRFLVQAERTVLVSMNYRVGAFGFLALPGSREAPGNVGLLDQRLALQWVQENVAAFGGDPTSVTLFGESAGAASVGMHLLSPPSRGLFHRAVLQSGAPNGPWATVGMGEARRRATQLAHLVGCPPGGTGGNDTELVACLRTRPAQVLVNHEWHVLPQESVFRFSFVPVVDGDFLSDTPEALINAGDFHGLQVLVGVVKDEGSYFLVYGAPGFSKDNESLISRAEFLAGVRVGVPQVSDLAAEAVVLHYTDWLHPEDPARLREALSDVVGDHNVVCPVAQLAGRLAAQGARVYAYVFEHRASTLSWPLWMGVPHGYEIEFIFGIPLDPSRNYTAEEKIFAQRLMRYWANFARTGDPNEPRDPKAPQWPPYTAGAQQYVSLDLRPLEVRRGLRAQACAFWNRFLPKLLSATDTLDEAERQWKAEFHRWSSYMVHWKNQFDHYSKQDRCSDL
# Experiments:
# [1] = biological target: acetylcholine esterase (AChE) (Electrophorus electricus, UniProt O42275); format: biochemical
# Sequence of acetylcholine esterase (AChE) (O42275 24-633): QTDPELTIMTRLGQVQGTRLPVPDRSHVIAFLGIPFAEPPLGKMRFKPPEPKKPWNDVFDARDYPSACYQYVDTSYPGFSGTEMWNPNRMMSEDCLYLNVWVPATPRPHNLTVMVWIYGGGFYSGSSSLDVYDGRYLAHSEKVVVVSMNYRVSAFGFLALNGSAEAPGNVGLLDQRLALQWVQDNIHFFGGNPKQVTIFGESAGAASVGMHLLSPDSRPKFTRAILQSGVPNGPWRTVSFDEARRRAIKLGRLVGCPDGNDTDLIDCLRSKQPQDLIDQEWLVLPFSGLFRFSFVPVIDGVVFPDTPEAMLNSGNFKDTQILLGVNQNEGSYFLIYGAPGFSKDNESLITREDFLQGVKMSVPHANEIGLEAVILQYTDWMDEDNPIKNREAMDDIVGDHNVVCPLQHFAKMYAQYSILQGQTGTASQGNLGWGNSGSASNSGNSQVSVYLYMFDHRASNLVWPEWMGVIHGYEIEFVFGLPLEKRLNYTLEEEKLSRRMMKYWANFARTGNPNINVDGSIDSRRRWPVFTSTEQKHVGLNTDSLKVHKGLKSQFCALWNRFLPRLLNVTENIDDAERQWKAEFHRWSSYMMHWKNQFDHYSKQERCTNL
# Experimental: Data were recorded in 0.1 M phosphate buffer, pH=8.1, under argon.
# One of the products of the hydrolysis of acetylthiocholine is thiocholine (2), which is an electron donor.
# FIG. 2A depicts the photocurrent action spectra resulting in the photoirradiation of the system in the presence of different concentrations of acetylthiocholine. […] Thus, the photocurrent generation in the system is attributed to the AChE catalyzed hydrolysis of acetylthiocholine, (1), to acetate and thiocholine, (2). The latter product acts as donor for the holes generated in the valence band upon excitation of the CdS nanoparticles. Thus, oxidation of thiocholine by the holes eliminates the electron-hole recombination, and thus a steady-state photocurrent is generated.
# [2] = substrate: CC(=O)SCC[N+](C)(C)C; assay: KM of AChE towards acetylthiocholine in solution; format: biochemical; conditions: other: AChE in solution
# Experimental: The KM value of the AChE linked to the CdS nanoparticles towards acetylthiocholine, (1), is KM=5 mM. This value is higher than the KM=0.13 mM of ACHE and (1) in solution. The higher KM value for the nanoparticle-immobilized ACHE may be attributed to slight deactivation and structural perturbation of the biocatalyst as a result of surface linkage.
Molecule,effect on photocurrent with increasing concentration [1],mode of inhibition [1],reversibility: photocurrent after washing off the inhibitor [1],Km [2] [µM]
"C=CC[N+](C)(C)c1ccc(CCC(=O)CCc2ccc([N+](C)(C)CC=C)cc2)cc1 [(3), 1,5-bis(4-allyldimethylammoniumphenyl)pentane-3-one dibromide]",decreases the photocurrent,competitive inhibitor,almost restores the initial photocurrent,–
B1,–,–,–,130
